Laboratory results: patent EP0084516B1, “Anthelmintics” (CIBA-GEIGY AG, priority 1982, dated 1983)
Values joined by “and” are separate entries in the source; they are usually repeats but may differ in a detail not shown here. Identical values can stand only once.

Tests used:
Fasciola hepatica [1] = test: Tests on sheep artificially infected with Fasciola hepatica metacercariae (faecal egg counts and adult fluke counts at autopsy); format: in vivo, Schafe; details: for Adulte Egel bei Autopsie Mittelwert: group mean
Description: Versuche an mit Fasciola hepatica infizierten Schafen
36 Schafe wurden artifiziell mit Metacercarien von Fasciola hepatica infiziert. Zu diesem Zweck wurden die Metacercarien in einer wäßrigen 0,4%igen Suspension von Carboxymethylcellulose direkt in den Rumen der Versuchstiere injiziert. Die Tiere wurden dann für die Medikierung in etwa gleichgroße Gruppen und in drei Kontrollgruppen eingeteilt. Nach 4 Wochen wurden die Wirkstoffe in Dosen von 5 bis 10 mg/kg Körpergewicht je nach vorgesehener Kombination an die Versuchstiere verabreicht.
Während des Versuchs wurden die Schafe in Gehegeboxen unter Normalbedingungen gehalten.
Zur Prüfung der Wirkung der einzelnen Wirkstoffkombinationen wurden mit einer Standardtechnik 12 bis 15 Wochen nach Infizierung bzw. 8 bis 11 Wochen nach Medikierung die von den Leberegeln abgelegten Eier im Kot gezählt. Anschließend wurden die Versuchstiere getötet, soweit sie nicht zur Gruppe B und Kontrollgrupe B' gehörten (Tiere Nr. 26-36), und es wurde die Zahl der vorhandenen Leberegel festgestellt.

[2] = system: 6wöchige und jüngere Leberegel; details: comparable dose; from Austral. Vet. J. 55, 431-432, 1979; Brit. Vet. J. 138,371-382, 1982; cited from earlier work
Fasciola hepatica [3] = test: Tests on sheep artificially infected with Fasciola hepatica metacercariae (faecal egg counts and adult fluke counts at autopsy); format: in vivo, Schafe; details: B 4,6 mg/kg, individual sheep

CSc1nc2cc(Cl)c(Oc3cccc(Cl)c3Cl)cc2[nH]1 [Substanz A, 5-Chlor-6-(2',3'-dichlorphenoxy)-2-methylthiobenzimidazol]
Adulte Egel bei Autopsie Anzahl (Fasciola hepatica [1]; A 5,0 mg/kg, given 4 weeks after infection, individual sheep): 12 and 23 and 2 and 14 and 0 | EPG* 14. Woche (Fasciola hepatica [1]; A 5,0 mg/kg, given 4 weeks after infection, liver fluke eggs per g faeces, week 14 after infection, individual sheep): 65 pro gr Faeces and 60 pro gr Faeces and 0 pro gr Faeces (2×) and 10 pro gr Faeces | EPG* 15. Woche (Fasciola hepatica [1]; A 5,0 mg/kg, given 4 weeks after infection, week 15 after infection, individual sheep): 125 pro gr Faeces and 60 pro gr Faeces and 5 pro gr Faeces and 0 pro gr Faeces (2×) | Adulte Egel bei Autopsie Mittelwert (Fasciola hepatica [1]; A 5,0 mg/kg, sheep 1-5): 10,2 | Adulte Egel bei Autopsie % Reduktion (Fasciola hepatica [1]; A 5,0 mg/kg, versus untreated control A'): 89,4%

CCCSc1ccc2nc(NC(=O)OC)[nH]c2c1 [Substanz B, [5-(Propylthio)-1 H-benzimidazol-2-yl]-carbaminsäuremethylester]
Wirkung gegen 6wöchige und jüngere Leberegel [2]: unwirksam | EPG* 12. Woche (Fasciola hepatica [3]; given 4 weeks after infection, week 12 after infection): 360 pro gr Faeces and 370 pro gr Faeces and 290 pro gr Faeces and 880 pro gr Faeces | EPG* 13. Woche (Fasciola hepatica [3]; week 13 after infection): 1110 pro gr Faeces and 560 pro gr Faeces and 370 pro gr Faeces and 1280 pro gr Faeces

COC(=O)Nc1nc2ccc(Sc3ccccc3)cc2[nH]1 [Substanz C, [5-(Phenylthio)-1 H-benzimidazol-2-yl]-carbaminsäuremethylester, reference compound]
Adulte Egel bei Autopsie Anzahl (Fasciola hepatica [1]; C 5,0 mg/kg, given 4 weeks after infection, Tabelle 2, individual sheep): 54 and 77 and 82 | Adulte Egel bei Autopsie Mittelwert (Fasciola hepatica [1]; C 5,0 mg/kg, Tabelle 2, sheep 20-22): 71 | Adulte Egel bei Autopsie % Reduktion (Fasciola hepatica [1]; C 5,0 mg/kg, Tabelle 2, versus untreated control C'): 0%
